# From US10364466B2, “Biological markers for identifying patients for treatment with VEGF antagonists” (Genentech, Inc., priority 2012, dated 2019)
# How the values were obtained:
# VDV gene expression = assay: Microarray VDV signature expression in pre- and post-treatment biopsies of inflammatory breast cancer patients (Table 3, human IBC Log2FC); assay type: in vivo; conditions: 19 inflammatory breast cancer patients, one dose single agent, 21 days post-treatment; published micro-array data (Wedam et al.)
# Text: The log2 ratio intensity values from Agilent WMG microarrays and the Robust Multi-array Average (RMA) normalized intensities (also on the logarithmic scale) from Affymetrix Mouse430.2 microarrays were imported into R as expression sets using the package “Biobase,” and a linear model was fitted to each feature using the functions “lmFit” and “eBayes” in the “limma” package. […] The union of these genes was taken as representative of the VEGF-responsive vasculature. The extent to which this VDV gene expression signature varied in other experiments was determined by fitting a linear model to the microarray data using the “limma” package (as above) and calculating the mean of the t-statistics from gene in the signature according to the method of Falcon and Gentleman (Bioinformatics. 23: 257-258, 2007).
# As depicted in Table 3 below, the genes in the VDV signature were ordered by the extent of anti-VEGF response in the human IBC trial. Orthologs between human and mouse were mapped using the Ensembl Biomart, where “Log 2FC” represents the log(2) fold-change of the gene's expression post-Avastin treatment as compared to pre-treatment. The 19 paired patient samples and the murine PNETs were analyzed on Agilent microarrays. […]
# [1] = test system: metastatic colorectal carcinoma (CRC); assay: NO16966 first-line metastatic colorectal cancer trial, PFS and OS, stratified by 22-gene VDV signature; assay type: in vivo, human
# Method: Sections from archival tumor samples from patients enrolled in the XELOX treatment arms of NO 16966 were evaluated by a pathologist and high tumor content area macro-dissected for subsequent RNA isolation using the FFPE RNA isolation kit (Roche; 7-10 sections per patient). RNA levels were assessed after cDNA synthesis following standard techniques, with the qPCR protocol on the Fluidigm Biomark platform according to the manufacturer's protocol.
# Quantitative histological data from various animal experiments were plotted using Microsoft Excel software. Student's t test was applied to compare data sets of interest and differences with p values <0.05 were considered significant. 103 biopsies out of 1017 patients from the XELOX (capecitabine and oxaliplatin)-containing arm in the NO16966 trial were analyzed for the gene expression of VDV genes. qRT-PCR values were normalized by the housekeeping genes and relative to a universal reference sample to derive delta-delta Ct values. Subsequently, the delta-delta Ct value of each of the 22 VDV genes was mean centered and variance scaled to a Z-score.
# For each sample i for which all of the VDV genes were analyzed, a VDV signature score (VDVi) was calculated. The VDVi represents a weighted average of z-scores across the analyzed VDV genes and is given by the algorithm:
# [formula] wherein Zg,i is the standardized z-score of the qRT-PCR value for gene g of sample i and n, in this instance, is 22. The VDVi value provides quantitative information regarding the extent to which the expression of a particular set of genes is collectively overexpressed or underexpressed relative to a centered mean.
# To compare the clinical outcomes (PFS and OS) between marker and/or treatment subgroups, log-rank tests and Cox regression were used, with median time calculated by the Kaplan-Meier analysis. All statistical tests were two-sided.
# To test if VDV gene expression could correlate with clinical outcomes, we analyzed VDV gene expression levels in available pre-treatment archival tumor tissue from 103 patients (biomarker evaluable subpopulation) that were enrolled in the XELOX-containing arms. Due to the limited quality and amount of RNA from these clinical samples, gene expression was analyzed in a previously designed and validated “angiogenesis” Fluidigm qRT-PCR chip (FIG. 8B) that included 4 different housekeeping genes (for gene expression normalization), VEGF (as a control), and 22 representative proximal and distal VDV genes comprising: (i) pan-vascular markers such as CD31, CD34, and VE-CADH as indicators of MVD; (ii) key VEGF pathway components and proxVDV genes, including VEGFR-1, VEGFR-2, VEGFR-3, EPHRINB2, NRPs, ESM1, NID2, COL4a2, and LAMA4a; and (iii) additional VDV genes that are components of endothelial signaling pathways and potential modulators of VDV biology, including DLL-4, NOTCH1, ALK1, and EGFL7 (see FIG. 9A for validation of this compacted 22 VDV gene signature).
# [2] = test system: metastatic colorectal carcinoma (CRC); conditions: whole NO16966 study, Saltz et al. 2008; cited from earlier work
# [3] = test system: metastatic colorectal carcinoma (CRC); conditions: patients with metastatic CRC, Hurwitz et al. 2004; cited from earlier work
# [4] = 103 biomarker evaluable patients, XELOX arms
substance,measurement,setting,value
bevacizumab: recombinant humanized anti-VEGF monoclonal antibody,VDV transcripts post-treatment vs pre-treatment biopsies,VDV gene expression,clear down regulation
same,"OS HR, addition to chemotherapy",[1]; [4],0.45
same,"PFS HR, addition to chemotherapy",[1]; [4],0.59
same,"OS HR, addition to chemotherapy vs chemotherapy alone",[1]; VDV high patients,0.31
same,"PFS HR, addition to chemotherapy vs chemotherapy alone",[1]; VDV high patients,0.36
same,"OS HR, combination with chemotherapy vs chemotherapy alone",[1]; VDV low patients,0.58
same,"PFS HR, combination with chemotherapy vs chemotherapy alone",[1]; VDV low patients,0.88
same,"OS differences (secondary endpoint), addition to chemotherapy",[2],did not reach statistical significance
same,"primary endpoint of PFS, addition to chemotherapy",[2],significantly improved
same,"progression free survival (PFS) and overall survival (OS), combination with chemotherapy",[3],increase
